Results as given in patent US20260364080A1, “PYRAZOLO-PYRIMIDINONE COMPOUNDS FOR USE IN METHODS OF INHIBITING WEE1 A KINASE” (Acrivon Therapeutics, Inc., priority 2023, published 2026).

How the values were obtained:
[1] = biological target: T1, Myt1 kinase (CDK1 Thr14 phosphorylation in DAOY medulloblastoma cells) (Homo sapiens, UniProt Q99640); test: AlphaLISA assay, Myt1 kinase target engagement (phospho-CDK1 Thr14) in DAOY cells; assay type: cell-based; conditions: 4 h treatment, read-out: CDK1 Thr14 Phosphorylation EC50
T1 construct: pCDK1 Thr14 AlphaLISA read-out
T1 sequence (Q99640 1-499): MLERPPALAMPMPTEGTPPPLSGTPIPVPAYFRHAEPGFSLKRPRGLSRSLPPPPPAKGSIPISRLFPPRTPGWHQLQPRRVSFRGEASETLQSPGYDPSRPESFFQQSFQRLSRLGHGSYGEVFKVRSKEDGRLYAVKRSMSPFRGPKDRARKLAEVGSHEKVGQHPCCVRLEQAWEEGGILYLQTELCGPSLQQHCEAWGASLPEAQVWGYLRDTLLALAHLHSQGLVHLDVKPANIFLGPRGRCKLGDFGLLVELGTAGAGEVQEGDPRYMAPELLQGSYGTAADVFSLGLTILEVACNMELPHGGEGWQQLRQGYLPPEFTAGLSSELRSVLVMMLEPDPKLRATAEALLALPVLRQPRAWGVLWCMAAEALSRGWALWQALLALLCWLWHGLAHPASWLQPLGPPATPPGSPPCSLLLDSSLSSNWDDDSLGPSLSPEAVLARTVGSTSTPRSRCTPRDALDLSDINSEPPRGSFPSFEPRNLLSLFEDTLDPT
Procedure: Each of an ACHN renal cell carcinoma cell line (ATCC) and a DAOY medulloblastoma cell line, and an A427 lung cancer line were cultured in Minimum Essential Medium Eagle supplemented with 10% fetal calf serum (Sigma), 1% Penicillin-Streptomycin and 10 mM HEPES buffer (HyClone). Cell cultures were kept in a humidified incubator at 37 °C and 5% CO2. Cells were routinely tested for Mycoplasma contamination.
For target engagement assessment of Myt1 kinase inhibition, quantification of Cdk1 phosphorylated on threonine 14 was detected using the AlphaLISA® SureFire® Ultra™ Human Phospho-CDK1 (Thr14) assay (Perkin Elmer). DAOY or ACHN cells were seeded into tissue culture treated 96-well plates (VWR) to a density of 10,000 or 20,000 cells per well respectively. 24 h post seeding cells were treated for 4 h with compounds at concentrations ranging from 7 to 5000 nM. Cells were washed with PBS and lysed in 50 μl AlphaLISA lysis buffer before freezing at −80 C. Ten ul of the lysate was transferred to 384 well plates and incubated with AlphaLISA donor and acceptor beads according to the manufacturer's instructions. Dose response curves and EC50 values were calculated and visualized using GraphPad Prism version 9. Target engagement for Myt1 kinase can also be measured using the same AlphaLISA assay in OVCAR3 cells, an ovarian cancer cell line. NIH:OVCAR-3 (OVCAR3) cells are cultured in RPMI-1640 medium supplemented with 0.01 mg/ml insulin, 20% FBS, 1% Penicillin-Streptomycin and 10 mM HEPES buffer. 14,000 cells per well are seeded into 96 well tissue culture plates in full medium. Twenty-four hours post seeding, cells are treated with compound for 4 hours at concentrations ranging from 0.017 nM to 1000 nM.

ACHN cells = test: Cell Titer Glo viability assay, ACHN cells; assay type: cell-based; conditions: Homo sapiens, 144 h, absolute EC50
Method in brief: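 Cells grown in MEM with 10% FCS were seeded at 500 (A427), 400 (ACHN) or 250 (DAOY) per well and treated the next day with compound at 17 to 10 000 nM. Viability relative to untreated control was read at 144 h by CellTiter-Glo 2.0.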

[2] = biological target: T2, Myt1 kinase (recombinant PMYT-1) (Homo sapiens, UniProt Q99640); test: Myt1 kinase binding assay (LanthaScreen Eu Kinase Binding Assay); conditions: 3 nM tracer 178, 2.5 nM PMYT-1, 1 nM Eu-labeled antibody; read-out: Myt1 kinase Binding IC50
T2 construct: full length PMYT-1 was expressed by baculovirus in insect cells; purchased Invitrogen A30984; host or cells: insect cells (baculovirus)
T2 sequence (Q99640 1-499): T1 sequence (Q99640 1-499)
Method in brief: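 The binding affinity of compounds for Myt1 kinase was measured with a LanthaScreen Europium (Eu) Kinase Binding Assay, a time-resolved FRET format in which test compounds compete against a labeled kinase tracer, and the results were expressed as IC50 values describing compound binding to Myt1.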

[3] = biological target: T3, recombinant human Wee1A kinase (Homo sapiens, UniProt P30291); test: Wee1A kinase binding assay (LanthaScreen Eu time-resolved FRET); conditions: 30 nM tracer 178, 5 nM Wee1A kinase, 2 nM Eu-labeled antibody; 60 minutes at room temperature; read-out: Wee1A kinase Binding IC50
T3 construct: full length Wee1 kinase was expressed by baculovirus in insect cells; purchased Invitrogen PV3817; host or cells: insect cells (baculovirus)
T3 sequence (P30291 whole entry): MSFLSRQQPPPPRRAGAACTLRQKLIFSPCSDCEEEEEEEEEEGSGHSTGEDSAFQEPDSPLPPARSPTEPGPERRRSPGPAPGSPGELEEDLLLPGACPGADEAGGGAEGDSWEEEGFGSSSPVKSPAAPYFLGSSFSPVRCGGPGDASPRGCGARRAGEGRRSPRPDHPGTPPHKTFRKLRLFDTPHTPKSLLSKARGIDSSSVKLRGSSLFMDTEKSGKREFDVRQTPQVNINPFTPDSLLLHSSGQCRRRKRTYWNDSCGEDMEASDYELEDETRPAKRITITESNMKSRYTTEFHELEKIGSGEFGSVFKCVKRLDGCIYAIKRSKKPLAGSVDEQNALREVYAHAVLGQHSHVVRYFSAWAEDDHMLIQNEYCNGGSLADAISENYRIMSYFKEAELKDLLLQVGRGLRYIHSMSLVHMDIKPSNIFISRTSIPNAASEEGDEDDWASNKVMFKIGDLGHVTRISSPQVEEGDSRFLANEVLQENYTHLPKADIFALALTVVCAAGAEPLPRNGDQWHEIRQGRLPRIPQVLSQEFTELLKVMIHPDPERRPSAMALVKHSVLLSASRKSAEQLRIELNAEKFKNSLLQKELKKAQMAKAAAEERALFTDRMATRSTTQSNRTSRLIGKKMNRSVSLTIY
Method in brief: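 Full-length, baculovirus-expressed GST-tagged Wee1A (5 nM) was mixed with 2 nM Eu-anti-GST antibody, 30 nM kinase tracer 178 and compound (1% DMSO). Buffer was 50 mM HEPES pH 7.5, 10 mM MgCl2, 1 mM EGTA, 0.01% Brij-35, incubated 60 min at room temperature. TR-FRET 665/615 nm emission ratios from duplicates were curve-fitted.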

[4] = biological target: T4, Wee1A kinase (CDK1 Tyr15 phosphorylation in ACHN renal cell carcinoma cells) (Homo sapiens, UniProt P30291); test: High-content imaging of pCdk1 Y15, Wee1A kinase target engagement in ACHN cells; assay type: cell-based; conditions: 4 h treatment, nuclear positivity for pCdk1 Y15 vs DMSO control, read-out: CDK1 Tyr15 Phosphorylation EC50
T4 construct: pCDK1 Tyr15 immunofluorescence read-out
T4 sequence (P30291 whole entry): as above
Method in brief: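 ACHN cells exposed to compound for 4 h over 7–5,000 nM or 0.3–200 nM, then fixed and immunostained for pCDK1 Y15 with DAPI nuclear counterstain. The percentage of pCdk1 Y15 nucleus-positive cells relative to DMSO control was imaged per well; EC50 from dose-response curves.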

## C=CCn1c(=O)c2cnc(Nc3ccc4ncccc4c3)nc2n1-c1cccc(OC2CCNCC2)n1 [Compound 242, 2-allyl-1-[6-(4-piperidyloxy)-2-pyridyl]-6-(6-quinolylamino)-1,2-dihydro-3H-1,2,5,7-tetraazainden-3-one]
[1]
  EC50: 500 to 1000 nM
ACHN cells
  EC50: 100 to 500 nM
[2]
  IC50: < 20 nM
[3]
  IC50: < 10 nM
[4]
  EC50: 100 to 500 nM

## C=CCn1c(=O)c2cnc(Nc3ccc4cccnc4c3)nc2n1-c1cccc(OC2CCNCC2)n1 [Compound 243, 2-allyl-1-[6-(4-piperidyloxy)-2-pyridyl]-6-(7-quinolylamino)-1,2-dihydro-3H-1,2,5,7-tetraazainden-3-one]
[1]
  EC50: 500 to 1000 nM
ACHN cells
  EC50: 100 to 500 nM
[2]
  IC50: < 20 nM
[3]
  IC50: < 10 nM
[4]
  EC50: < 100 nM

## C=CCn1c(=O)c2cnc(Nc3ccc4cnccc4c3)nc2n1-c1cccc(OC2CCNCC2)n1 [Compound 244, 2-allyl-6-(6-isoquinolylamino)-1-[6-(4-piperidyloxy)-2-pyridyl]-1,2-dihydro-3H-1,2,5,7-tetraazainden-3-one]
[1]
  EC50: 500 to 1000 nM
ACHN cells
  EC50: 100 to 500 nM
[2]
  IC50: 20 to 100 nM
[3]
  IC50: < 10 nM
[4]
  EC50: < 100 nM

## C=CCn1c(=O)c2cnc(Nc3ccc(OC)nc3)nc2n1-c1cccc(OC2CCN(C)CC2)n1 [Compound 250, 2-allyl-6-(6-methoxy-3-pyridylamino)-1-[6-(1-methyl-4-piperidyloxy)-2-pyridyl]-1,2-dihydro-3H-1,2,5,7-tetraazainden-3-one]
[1]
  EC50: 200 to 500 nM
ACHN cells
  EC50: ≤ 100 nM
[2]
  IC50: 20 to 100 nM
[3]
  IC50: < 10 nM
[4]
  EC50: < 100 nM

## C=CCn1c(=O)c2cnc(Nc3ccc(OCC(F)(F)F)cc3)nc2n1-c1ccnc(OC2CCN(C)CC2)n1 [Compound 253, 2-allyl-1-(2-((1-methylpiperidin-4-yl)oxy)pyrimidin-4-yl)-6-((4-(2,2,2-trifluoroethoxy)phenyl)amino)-1,2-dihydro-3H-pyrazolo[3,4-d]pyrimidin-3-one]
[1]
  EC50: > 1000 nM
ACHN cells
  EC50: ≤ 100 nM
[2]
  IC50: 20 to 100 nM
[3]
  IC50: < 10 nM
[4]
  EC50: < 100 nM

## C=CCn1c(=O)c2cnc(Nc3ccc(OCC)cc3)nc2n1-c1cccc(OC2CCNCC2)n1 [Compound 254, 2-allyl-6-((4-ethoxyphenyl)amino)-1-(6-(piperidin-4-yloxy)pyridin-2-yl)-1,2-dihydro-3H-pyrazolo[3,4-d]pyrimidin-3-one]
[1]
  EC50: 500 to 1000 nM
ACHN cells
  EC50: ≤ 100 nM
[2]
  IC50: 20 to 100 nM
[3]
  IC50: < 10 nM
[4]
  EC50: < 100 nM

## C=CCn1c(=O)c2cnc(Nc3ccc(OCC)cc3)nc2n1-c1cccc(OC2CCN(C)CC2)n1 [Compound 255, 2-allyl-6-((4-ethoxyphenyl)amino)-1-(6-((1-methylpiperidin-4-yl)oxy)pyridin-2-yl)-1,2-dihydro-3H-pyrazolo[3,4-d]pyrimidin-3-one]
[1]
  EC50: 200 to 500 nM
ACHN cells
  EC50: ≤ 100 nM
[2]
  IC50: < 20 nM
[3]
  IC50: < 10 nM
[4]
  EC50: < 100 nM

## C=CCn1c(=O)c2cnc(Nc3ccc(OCC(C)C)cc3)nc2n1-c1cccc(OC2CCN(C)CC2)n1 [Compound 257, 2-allyl-6-((4-isobutoxyphenyl)amino)-1-(6-((1-methylpiperidin-4-yl)oxy)pyridin-2-yl)-1,2-dihydro-3H-pyrazolo[3,4-d]pyrimidin-3-one]
[1]
  EC50: 500 to 1000 nM
ACHN cells
  EC50: ≤ 100 nM
[2]
  IC50: < 20 nM
[3]
  IC50: < 10 nM
[4]
  EC50: < 100 nM

## C=CCn1c(=O)c2cnc(Nc3ccc(OCC4CC4)cc3)nc2n1-c1cccc(OC2CCN(C)CC2)n1 [Compound 258, 2-allyl-6-((4-(cyclopropylmethoxy)phenyl)amino)-1-(6-((1-methylpiperidin-4-yl)oxy)pyridin-2-yl)-1,2-dihydro-3H-pyrazolo[3,4-d]pyrimidin-3-one]
[1]
  EC50: 200 to 500 nM
ACHN cells
  EC50: ≤ 100 nM
[2]
  IC50: < 20 nM
[3]
  IC50: < 10 nM
[4]
  EC50: < 100 nM

## C=CCn1c(=O)c2cnc(Nc3ccc(OCC4CC4)cc3)nc2n1-c1cccc(OC2CCNCC2)n1 [Compound 259, 2-allyl-6-((4-(cyclopropylmethoxy)phenyl)amino)-1-(6-(piperidin-4-yloxy)pyridin-2-yl)-1,2-dihydro-3H-pyrazolo[3,4-d]pyrimidin-3-one]
[1]
  EC50: 200 to 500 nM
ACHN cells
  EC50: ≤ 100 nM
[2]
  IC50: < 20 nM
[3]
  IC50: < 10 nM
[4]
  EC50: < 100 nM

## C=CCn1c(=O)c2cnc(Nc3ccc4nc(C)sc4c3)nc2n1-c1cccc(OC2CCN(C)CC2)n1 [Compound 260, 2-allyl-6-(2-methyl-1,3-benzothiazol-6-ylamino)-1-[6-(1-methyl-4-piperidyloxy)-2-pyridyl]-1,2-dihydro-3H-1,2,5,7-tetraazainden-3-one]
[1]
  EC50: 200 to 500 nM
ACHN cells
  EC50: ≤ 100 nM
[2]
  IC50: < 20 nM
[3]
  IC50: < 10 nM
[4]
  EC50: < 100 nM

## C=CCn1c(=O)c2cnc(Nc3ccc(N4CCOCC4)c(C)c3)nc2n1-c1cccc(OC2CCN(C)CC2)n1 [Compound 270, 2-allyl-1-[6-(1-methyl-4-piperidyloxy)-2-pyridyl]-6-(4-morpholino-3-toluidino)-1,2-dihydro-3H-1,2,5,7-tetraazainden-3-one]
[1]
  EC50: < 200 nM
ACHN cells
  EC50: ≤ 100 nM
[2]
  IC50: < 20 nM
[3]
  IC50: < 10 nM
[4]
  EC50: < 100 nM

## C=CCn1c(=O)c2cnc(Nc3ccc4nn(C)cc4c3)nc2n1-c1cccc(OC2CCN(C)CC2)n1 [Compound 273, 2-allyl-6-((2-methyl-2H-indazol-5-yl)amino)-1-(6-((1-methylpiperidin-4-yl)oxy)pyridin-2-yl)-1,2-dihydro-3H-pyrazolo[3,4-d]pyrimidin-3-one]
[1]
  EC50: < 200 nM
ACHN cells
  EC50: ≤ 100 nM
[2]
  IC50: < 20 nM
[3]
  IC50: < 10 nM
[4]
  EC50: < 100 nM

## C=CCn1c(=O)c2cnc(Nc3ccc(C#N)c(C)c3)nc2n1-c1cccc(OC2CCNCC2)n1 [Compound 293, 5-{2-allyl-3-oxo-1-[6-(4-piperidyloxy)-2-pyridyl]-1,2-dihydro-3H-1,2,5,7-tetraazainden-6-ylamino}-2-toluonitrile]
[1]
  EC50: 200 to 500 nM
ACHN cells
  EC50: 100 to 500 nM
[2]
  IC50: 20 to 100 nM
[3]
  IC50: < 10 nM
[4]
  EC50: < 100 nM

## C=CCn1c(=O)c2cnc(Nc3ccc4c(cnn4C)c3)nc2n1-c1ccnc(NC2CCN(C)CC2)n1 [Compound 313, 2-allyl-6-(1-methyl-1H-indazol-5-ylamino)-1-[2-(1-methyl-4-piperidylamino)-4-pyrimidinyl]-1,2-dihydro-3H-1,2,5,7-tetraazainden-3-one]
[1]
  EC50: > 1000 nM
ACHN cells
  EC50: ≤ 100 nM
[2]
  IC50: 20 to 100 nM
[3]
  IC50: < 10 nM
[4]
  EC50: < 100 nM
